Reference: patent EP0587396A1, “Use of hypoxoside derivatives for the treatment of viral infections” (VIROSTAT (NA) NV, priority 1992, dated 1994)
Read-outs that look alike come from different tables or passages of the source.

Columns and labels:
Format in all cases: cell-based
[1] = Toxicity: lymphocyte proliferation assay with MTT in the HIV-1 infected PBL cultures; settings: human, pbls, Table 8 continued (6 days incubation), read-out: Proliferation as a percentage of control value
Description: Possible toxic effects of the test substances were measured by viability testing using Trypan blue or a proliferation assay using3-(4,5-dimethylthiazol-2-yl)-2,5-diphenyl-2H-tetrazolium bromide (MTT) on day 4 or day 6 after initiation of the experiment (Borenfreund et al: Toxicol. In Vitro, 1988, 2, 1-6).
The toxicity of the drug was expressed as a percentage inhibition of lymphocyte proliferation as measured with MTT and compared with controls receiving the virus but no drug.

[2] = test system: respiratory syncytial virus (RSV); experiment: Inhibition of RSV syncytium formation in Hep-2 cells
Description: Compound XVIII was added to Hep-2 cells growing as slope cultures in plastics tubes to give final concentrations respectively of 50, 100 and 200 µg/mℓ. The cultures were then respectively inoculated with a high standard viral dose, one tenth (1/10) of said standard dose, and one hundredth (1/100) of said standard dose of respiratory syncytial virus (RSV). After four days of incubation at 33°C the cells were visually inspected using an inverted phase contrast microscope and scored for the extent of syncytium formation, i.e. single cells containing three or more nuclei, as follows: a = 0 - 25%, b = 25 - 50%, c = 50 - 75% and d = 75 - 100% of cells having three or more nuclei.

[3] = test system: primary foetal human fibroblasts; experiment: Signs of toxicity in the fibroblast cultures of the CMV test; settings: 200 µg/mℓ
Description: (§1) Compound XVII was added to primary foetal human fibroblasts in tissue culture, to yield final concentrations respectively of 50, 100 and 200 µg/mℓ. The cultures were then respectively inoculated with a high standard viral dose, with one tenth (1/10) of said standard dose and with one fiftieth (1/50) of said standard dose of cytomegalo-virus (CMV) and incubated for four days.

cytomegalo-virus (CMV) = experiment: Cytopathic effect of CMV in primary foetal human fibroblasts
Description: as §1
The cytopathic effect of CMV was determined by microscopic visual inspection of the cell cultures, in terms of the extent of gross swelling of the cells, where: a = 0 - 25%, b = 25 - 50%, c = 50 - 75% and d = 75 - 100% of the cells affected by gross swelling.

[4] = Toxicity: lymphocyte proliferation assay with MTT in the HIV-1 infected PBL cultures; settings: human, pbls, Table 8 (3 days incubation), read-out: Proliferation as a percentage of control value
[5] = test system: human immunodeficiency virus type 1 (HIV-1); experiment: Inhibition of HIV-1 proliferation in PHA-activated human PBL's (p24 core protein by Sandwich ELISA, HIV RNA by labelled DNA probe hybridization); settings: for inhibition at 50 µg/mL: read-out: % inhibition:HIV-RNA, 50 μg/mℓ; for inhibition at 100 µg/mL: read-out: % inhibition:HIV-RNA, 100 μg/mℓ
Description: Compounds I - XXVIII were subjected to in vitro testing for inhibition of human immunodeficiency virus type 1 (HIV-1) proliferation as follows:
Human peripheral blood lymphocytes (PBL's) obtained by density gradient centrifugation of blood from healthy volunteers at a blood bank were pooled and used for the propagation of HIV-1 in vitro.
The PBL's were polyclonally activated with phytohaemagglutinin (PHA) and subjected to quality controls whereby their viability was tested with Trypan blue exclusion and the expression of activation antigens, CD4⁺ and CD25⁺ was measured by immunofluorescence. Prior to adding the test substance, the activated PBL's were exposed to a standardized titre of HIV-1 virus and after incubation for 60 minutes the cells were washed twice and plated into microtitre plates at a concentration of 2X10⁶ cells/well. The medium contained interleukin-2 and in control wells the virus produced between 50 and 100 ng/mℓ of p24 core protein on day 4. The test substance was added to these cultures either in water or dimethyl sulphoxide (DMSO) depending on solubility characteristics. The final DMSO concentration, when used, was always 1% v/v.
HIV replication was measured as the production of p24 core protein and the production of HIV RNA on days 2, 3 and 4, or on days 3, 4, 5 and 6. Core protein p24 was measured using 'Sandwich ELISA' technology using inter alia a monoclonal antibody against p24 core protein. The HIV RNA was measured using a specific labelled DNA probe against HIV RNA and the process of hybridization.
Results were expressed as percent inhibition of HIV-1 p24 core protein production or RNA production on days 3, 4 or 6.
In each test, cells were also exposed to HIV-1 and 3'-azido-3'-deoxythymidine (also known as Zidovudine or AZT) at 100, 10, 1 and 0.1 ng/mℓ. This was a positive control and compounds tested were compared to the inhibitory effect of 10 ng/mℓ AZT.
In all of the following Tables, percentage inhibition refers to inhibition of p24 core protein production and HIV RNA production relative to infected controls. Percentage AZT inhibition refers to inhibition caused by 10 ng/mℓ AZT at the end of the experiment, i.e. after 4 or 6 days.

[6] = Human immunodeficiency virus 1, 72 h, 3 days incubation
[7] = Human immunodeficiency virus 1, 144 h, 6 days incubation

O=S(=O)(O)Oc1ccc(C#CC/C=C/c2ccc(OS(=O)(=O)O)c(O)c2)cc1O [Compound XVII]
viability ([1]; 50 μg/mℓ): 96%
viability ([1]; 100 μg/mℓ): 94%
Extent of Syncytium Formation ([2]; 50 µg/mℓ, viral dose 1/10, 4 days at 33°C (virus control c)): c (c = 50 - 75%)
Extent of Syncytium Formation ([2]; 50 µg/mℓ, viral dose 1/100, 4 days at 33°C (virus control b)): a (a = 0 - 25%)
Extent of Syncytium Formation ([2]; 50 µg/mℓ, viral dose Full, 4 days at 33°C (virus control d)): d (d = 75 - 100% of cells having three or more nuclei)
Extent of Syncytium Formation ([2]; 100 µg/mℓ, viral dose 1/10, 4 days at 33°C (virus control c)): a (a = 0 - 25%)
Extent of Syncytium Formation ([2]; 100 µg/mℓ, viral dose 1/100, 4 days at 33°C (virus control b)): Nil
Extent of Syncytium Formation ([2]; 100 µg/mℓ, viral dose Full, 4 days at 33°C (virus control d)): c (c = 50 - 75%)
Extent of Syncytium Formation ([2]; 200 µg/mℓ, viral dose 1/10, 4 days at 33°C (virus control c)): Nil
Extent of Syncytium Formation ([2]; 200 µg/mℓ, viral dose 1/100, 4 days at 33°C (virus control b)): Nil
Extent of Syncytium Formation ([2]; 200 µg/mℓ, viral dose Full, 4 days at 33°C (virus control d)): Nil
cultures showing signs of toxicity due to the compound [3]: 5 out of 8
Extent of the Cytopathic Effect of Cytomegalo-Virus (cytomegalo-virus (CMV); 50 µg/mℓ, viral dose 1/10, 4 days of incubation (virus control b+)): b (b = 25 - 50%)
Extent of the Cytopathic Effect of Cytomegalo-Virus (cytomegalo-virus (CMV); 50 µg/mℓ, viral dose 1/50, 4 days of incubation (virus control a)): a (a = 0 - 25%)
Extent of the Cytopathic Effect of Cytomegalo-Virus (cytomegalo-virus (CMV); 50 µg/mℓ, viral dose Full, 4 days of incubation (virus control c)): bc
Extent of the Cytopathic Effect of Cytomegalo-Virus (cytomegalo-virus (CMV); 100 µg/mℓ, viral dose 1/10, 4 days of incubation (virus control b+)): ab
Extent of the Cytopathic Effect of Cytomegalo-Virus (cytomegalo-virus (CMV); 100 µg/mℓ, viral dose 1/50, 4 days of incubation (virus control a)): a-
Extent of the Cytopathic Effect of Cytomegalo-Virus (cytomegalo-virus (CMV); 100 µg/mℓ, viral dose Full, 4 days of incubation (virus control c)): bc
Extent of the Cytopathic Effect of Cytomegalo-Virus (cytomegalo-virus (CMV); 200 µg/mℓ, viral dose 1/10, 4 days of incubation (virus control b+)): Nil
Extent of the Cytopathic Effect of Cytomegalo-Virus (cytomegalo-virus (CMV); 200 µg/mℓ, viral dose 1/50, 4 days of incubation (virus control a)): Nil
Extent of the Cytopathic Effect of Cytomegalo-Virus (cytomegalo-virus (CMV); 200 µg/mℓ, viral dose Full, 4 days of incubation (virus control c)): Nil
viability ([4]; 50 μg/mℓ): 84%
viability ([4]; 100 μg/mℓ): 80%
% inhibition:p24 core protein ([5]; 50 μg/mℓ, 3 days incubation): 47%
% inhibition:p24 core protein ([5]; 50 μg/mℓ, 6 days incubation): 87%
% inhibition:p24 core protein ([5]; 100 μg/mℓ, 3 days incubation): 88%
inhibition at 50 µg/mL [5, 6]: 68%
inhibition at 100 µg/mL [5, 6]: 93%
inhibition at 50 µg/mL [5, 7]: 91%
inhibition at 100 µg/mL [5, 7]: 100%
